Values quoted from earlier work in patent US6750249B1, “Controlled release oral preparations of esculetin and its derivatives” (priority 1998, dated 2004).

Tested on: glycosaminoglycan in the matrix
Settings: stimulation of interleukin-1 and the like; Japanese Patent Application Laid-open No. 312925/1994

| SMILES | depression of a decrease in the amount of glycosaminoglycan in the matrix |
| --- | --- |
| Cc1cc(=O)oc2cc(O)c(O)cc12 [4-methyl esculetin] | strongly depress a decrease in the amount of glycosaminoglycan |
| O=c1ccc2cc(O)c(O)cc2o1 [esculetin] | strongly depress a decrease in the amount of glycosaminoglycan |
